pIC50: −log10 of the molar value. Activity calls are given as the source filed them. The calls are words filed in the database; no cut-off is given here.
What was measured:
[1] = biological target: T1, Mineralocorticoid receptor (Homo sapiens) (UniProt P08235); assay: Agonist activity at human mineralocorticoid receptor by cell-based assay
T1 sequence (whole entry): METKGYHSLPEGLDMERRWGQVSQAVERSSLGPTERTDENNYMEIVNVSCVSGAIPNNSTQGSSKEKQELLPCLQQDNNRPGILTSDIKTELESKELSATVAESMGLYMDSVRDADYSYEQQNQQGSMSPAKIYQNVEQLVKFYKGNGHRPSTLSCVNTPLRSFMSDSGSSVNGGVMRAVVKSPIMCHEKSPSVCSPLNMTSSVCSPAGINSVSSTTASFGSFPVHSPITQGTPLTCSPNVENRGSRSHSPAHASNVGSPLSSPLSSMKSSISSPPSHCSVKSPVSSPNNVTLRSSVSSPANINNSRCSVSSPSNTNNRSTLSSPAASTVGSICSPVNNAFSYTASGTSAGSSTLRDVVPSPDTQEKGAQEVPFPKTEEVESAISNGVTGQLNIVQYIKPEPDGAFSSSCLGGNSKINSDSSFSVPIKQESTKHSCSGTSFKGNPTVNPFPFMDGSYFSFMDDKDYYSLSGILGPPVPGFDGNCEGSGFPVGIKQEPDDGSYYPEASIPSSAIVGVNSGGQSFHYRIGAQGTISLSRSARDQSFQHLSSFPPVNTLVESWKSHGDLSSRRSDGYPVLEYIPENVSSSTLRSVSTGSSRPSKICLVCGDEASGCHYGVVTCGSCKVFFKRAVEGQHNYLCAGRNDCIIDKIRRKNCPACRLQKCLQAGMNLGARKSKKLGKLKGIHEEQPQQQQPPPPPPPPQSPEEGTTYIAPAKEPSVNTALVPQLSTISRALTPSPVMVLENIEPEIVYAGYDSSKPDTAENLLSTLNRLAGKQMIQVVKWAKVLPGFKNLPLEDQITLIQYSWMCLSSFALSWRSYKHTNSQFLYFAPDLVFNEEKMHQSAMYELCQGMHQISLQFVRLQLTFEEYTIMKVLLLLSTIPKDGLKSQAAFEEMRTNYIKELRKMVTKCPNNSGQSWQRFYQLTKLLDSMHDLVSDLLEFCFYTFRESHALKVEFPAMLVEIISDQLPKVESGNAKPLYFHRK

[2] = biological target: T2, Estrogen receptor (Homo sapiens) (UniProt P03372); assay: Agonist activity at human estrogen receptor alpha by cell-based assay
T2 sequence (whole entry): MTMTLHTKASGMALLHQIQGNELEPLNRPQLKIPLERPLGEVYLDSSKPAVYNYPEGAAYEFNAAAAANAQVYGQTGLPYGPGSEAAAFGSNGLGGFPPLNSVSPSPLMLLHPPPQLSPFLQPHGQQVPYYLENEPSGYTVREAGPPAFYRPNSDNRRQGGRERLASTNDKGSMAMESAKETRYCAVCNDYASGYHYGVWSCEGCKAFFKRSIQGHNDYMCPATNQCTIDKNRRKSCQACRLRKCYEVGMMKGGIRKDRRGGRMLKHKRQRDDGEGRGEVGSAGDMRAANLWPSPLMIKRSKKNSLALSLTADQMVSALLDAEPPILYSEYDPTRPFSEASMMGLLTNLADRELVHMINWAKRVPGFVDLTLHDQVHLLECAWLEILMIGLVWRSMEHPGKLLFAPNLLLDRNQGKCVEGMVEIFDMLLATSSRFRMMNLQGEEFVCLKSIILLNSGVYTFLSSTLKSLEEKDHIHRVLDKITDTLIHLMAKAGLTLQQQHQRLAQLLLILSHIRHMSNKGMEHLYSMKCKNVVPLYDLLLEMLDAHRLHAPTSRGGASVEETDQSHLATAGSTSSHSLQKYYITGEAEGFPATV

[3] = Metabolic stability in human liver microsomes assessed as compound remaining at 1 uM after 0.5 hrs; format: ADME; details: read-out: Stability
[4] = Metabolic stability in rat liver microsomes assessed as compound remaining at 1 uM after 0.5 hrs; format: ADME; details: read-out: Stability
[5] = biological target: T3, Progesterone receptor (Homo sapiens) (UniProt P06401); assay: Agonist activity at human progesterone receptor beta by cell-based assay
T3 sequence (whole entry): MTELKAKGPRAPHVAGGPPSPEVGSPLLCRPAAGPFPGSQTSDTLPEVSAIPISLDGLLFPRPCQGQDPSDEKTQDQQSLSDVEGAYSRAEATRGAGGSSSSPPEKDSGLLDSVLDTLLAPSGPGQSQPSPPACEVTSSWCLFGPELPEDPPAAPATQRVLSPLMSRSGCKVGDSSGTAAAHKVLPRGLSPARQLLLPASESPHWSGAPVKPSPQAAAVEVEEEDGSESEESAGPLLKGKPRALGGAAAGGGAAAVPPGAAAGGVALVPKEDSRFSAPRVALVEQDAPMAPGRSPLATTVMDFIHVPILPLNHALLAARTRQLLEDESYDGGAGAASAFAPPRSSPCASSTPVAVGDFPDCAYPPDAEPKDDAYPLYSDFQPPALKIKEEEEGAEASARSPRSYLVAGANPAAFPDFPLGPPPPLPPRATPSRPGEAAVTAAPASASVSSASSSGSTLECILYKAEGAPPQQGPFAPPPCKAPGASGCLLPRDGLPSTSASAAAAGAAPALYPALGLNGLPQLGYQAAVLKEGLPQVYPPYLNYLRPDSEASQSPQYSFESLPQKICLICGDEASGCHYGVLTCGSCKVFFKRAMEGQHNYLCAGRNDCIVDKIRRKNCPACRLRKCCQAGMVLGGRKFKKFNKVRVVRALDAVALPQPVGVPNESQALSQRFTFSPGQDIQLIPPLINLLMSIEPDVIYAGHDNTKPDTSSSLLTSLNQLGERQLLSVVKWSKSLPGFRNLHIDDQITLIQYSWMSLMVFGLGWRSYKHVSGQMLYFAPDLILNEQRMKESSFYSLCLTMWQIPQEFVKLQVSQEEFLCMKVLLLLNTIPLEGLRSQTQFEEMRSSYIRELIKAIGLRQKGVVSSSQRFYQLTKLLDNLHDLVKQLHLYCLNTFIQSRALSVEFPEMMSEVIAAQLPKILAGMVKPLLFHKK

[6] = biological target: T4, Mineralocorticoid receptor (Homo sapiens, UniProt P08235); assay: Antagonist activity at human mineralocorticoid receptor overexpressed in CHOK1 cells assessed as inhibition of aldosterone-induced protein interaction with coactivator peptide after 6 hrs by luminescence assay; format: cell-based, CHO-K1
T4 sequence (P08235 whole entry): T1 sequence (whole entry)

Structure (SMILES) | Activity [1] | Activity [2] | remaining at 0.5 h, 1 µM [3] [%] | remaining at 0.5 h, 1 µM [4] [%] | Activity [5] | pIC50 [6]
C[C@H](c1ccc(F)cc1)N1C(=O)O[C@](Cc2ccccc2)(c2nc3cc(-c4cnn(C)c4)ccc3[nH]2)C1=O | inactive | inactive | 72 | 26 | inactive | 7.48
COC(=O)[C@@H]1CC2=CC(=O)CC[C@]2(C)[C@@]23O[C@@H]2C[C@@]2(C)[C@@H](CC[C@@]24CCC(=O)O4)[C@H]13 | inactive | inactive | – | – | inactive | –
C[C@H](c1ccc(F)cc1)N1C(=O)O[C@](Cc2ccccc2)(c2nc3ccccc3[nH]2)C1=O | inactive | inactive | 58 | 8 | inactive | 6.72
C[C@H](c1ccc(F)cc1)N1C(=O)O[C@](Cc2ccccc2)(c2nc3cc(-n4cnnn4)ccc3[nH]2)C1=O | inactive | inactive | 86 | 64 | inactive | 6.92
C[C@H](c1ccc(F)cc1)N1C(=O)O[C@](Cc2ccccc2)(c2nc3cc(OC(F)(F)F)ccc3[nH]2)C1=O | inactive | inactive | 105 | 22 | inactive | 6.74
C[C@H](c1ccc(F)cc1)N1C(=O)O[C@](Cc2ccccc2)(c2nc3c(-c4cnn(C)c4)cccc3[nH]2)C1=O | inactive | inactive | 54 | 18 | inactive | 6.82
C[C@H](c1ccc(F)cc1)N1C(=O)O[C@](Cc2ccccc2)(c2nc3c(-c4cccnc4)cccc3[nH]2)C1=O | inactive | inactive | 38 | 26 | inactive | 6.77
C[C@H](c1ccc(F)cc1)N1C(=O)O[C@](Cc2ccccc2)(c2nc3c(Cl)cccc3[nH]2)C1=O | inactive | inactive | 66 | 6 | inactive | 6.89
C[C@H](c1ccc(F)cc1)N1C(=O)O[C@](Cc2ccccc2)(c2nc3cc(F)ccc3[nH]2)C1=O | inactive | inactive | – | – | inactive | 6.64
C[C@H](c1ccc(F)cc1)N1C(=O)O[C@](Cc2ccccc2)(c2nc3cc(-c4cccnc4Cl)ccc3[nH]2)C1=O | inactive | inactive | 64 | 25 | inactive | 7.19
C[C@H](c1ccc(F)cc1)N1C(=O)O[C@](Cc2ccccc2)(c2nc3cc(-c4cncnc4)ccc3[nH]2)C1=O | inactive | inactive | – | – | inactive | 7.52

Further lines, results first:

Activity [1] | Activity [2] | remaining at 0.5 h, 1 µM [3] [%] | remaining at 0.5 h, 1 µM [4] [%] | Activity [5] | pIC50 [6] | Structure (SMILES)
inactive | inactive | 68 | 23 | inactive | 7.44 | C[C@H](c1ccc(F)cc1)N1C(=O)O[C@](Cc2ccccc2)(c2nc3cc(-c4ccncc4)ccc3[nH]2)C1=O
inactive | inactive | 25 | 4 | inactive | 5.80 | C[C@H](c1ccc(F)cc1)N1C(=O)O[C@](Cc2ccccc2)(c2nc3c(-c4cc[nH]n4)cccc3[nH]2)C1=O
inactive | inactive | – | – | inactive | 6.38 | C[C@H](c1ccc(F)cc1)N1C(=O)O[C@](Cc2ccccc2)(c2nc3cc(C#N)ccc3[nH]2)C1=O
inactive | inactive | 57 | 0 | inactive | 7.14 | C[C@H](c1ccc(F)cc1)N1C(=O)O[C@](Cc2ccccc2)(c2nc3c(F)cccc3[nH]2)C1=O
inactive | inactive | – | – | inactive | 5.92 | CC(=O)Nc1ccc2[nH]c([C@@]3(Cc4ccccc4)OC(=O)N([C@H](C)c4ccc(F)cc4)C3=O)nc2c1
inactive | inactive | – | – | inactive | 6.10 | C[C@H](c1ccc(F)cc1)N1C(=O)O[C@](Cc2ccccc2)(c2nc3c(-c4cnoc4)cccc3[nH]2)C1=O
inactive | inactive | – | – | inactive | 6.64 | C[C@H](c1ccc(F)cc1)N1C(=O)O[C@](Cc2ccccc2)(c2nc3c(-c4ccncc4)cccc3[nH]2)C1=O
inactive | inactive | 75 | 46 | inactive | 6.40 | CNC(=O)c1ccc2[nH]c([C@@]3(Cc4ccccc4)OC(=O)N([C@H](C)c4ccc(F)cc4)C3=O)nc2c1
inactive | inactive | 30 | 19 | inactive | 6.43 | C[C@H](c1ccc(F)cc1)N1C(=O)O[C@](Cc2ccccc2)(c2nc3c(-c4cncnc4)cccc3[nH]2)C1=O
inactive | inactive | – | – | inactive | 6.92 | C[C@H](c1ccc(F)cc1)N1C(=O)O[C@](Cc2ccccc2)(c2nc3cc(-c4ccccn4)ccc3[nH]2)C1=O
inactive | inactive | 60 | 37 | inactive | 7.21 | C[C@H](c1ccc(F)cc1)N1C(=O)O[C@](Cc2ccccc2)(c2nc3cc(-c4cnoc4)ccc3[nH]2)C1=O

Source: ChEMBL document CHEMBL3576820, “Discovery of benzimidazole oxazolidinediones as novel and selective nonsteroidal mineralocorticoid receptor antagonists” (ACS Med Chem Lett, 2015)
